These results are taken from the supplement of paper PMC8497498.

The subject of assay [1] is Plasmodium falciparum 3D7 asexual blood stage. The experiment in a line: EC50 asexual blood stage growth. To be noted: serum: 0.5% AlbuMAX. The essentials:
(§1)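 Reference compounds were tested against asexual blood-stage P. cynomolgi and P. falciparum in SYBR Green proliferation assays. For P. cynomolgi, stocks were diluted threefold in DMSO to ten points and dispensed acoustically at 500-fold dilution (top dose 10 µM), with vehicle and positive-control wells. Media held 0.5% AlbuMAX or 20% macaque serum. P. falciparum was assayed over 72 h with AlbuMAX. EC50 values are geometric means across independent experiments.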

In assay [2] the test system is Plasmodium cynomolgi Berok K4 asexual blood stage. The experiment in a line: EC50 asexual blood stage growth. The essentials: as §1
For assay [3], the system named is Plasmodium vivax liver stage (primary human hepatocyte culture). The essentials:
(§2)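 Primary human hepatocytes were infected with P. vivax sporozoites taken from mosquitoes fed on patient isolates. Compounds were pin-transferred in 40 nL volumes from 1000× DMSO plates, either at 8 points (10 uM[…]) or at 12 points in duplicate (50 uM–280 pM). Fixed, immunostained wells were imaged by high-content imaging for schizont growth area, hypnozoite count and hepatic nuclei, with values normalised to DMSO and positive-control wells. Potency, maximum inhibition and cytotoxicity based on nuclei loss were derived from CDD Vault curves of the highest-quality run, after toxic bell-shaped points were removed.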

Assay [4] has the same test system. The experiment in a line: maximum inhibition of schizont net growth area; higher = more active. The essentials: as §2
In assay [5] the test system is primary human hepatocytes. In words: CC20 hepatic nuclei (20% reduction); higher = less toxic. The essentials: as §2
The mark [6] stands for this setting: serum: 20% M. fascicularis serum.
The mark [7] stands for this setting: P. vivax isolate: Pv360, hepatocyte lot: UBV, assay mode: Radical Cure, 8-day (treatment from day 5 post-infection).
[8] abbreviates: P. vivax isolate: Pv914, hepatocyte lot: BGW, assay mode: Prophylactic, 6-day.
The mark [9] stands for this setting: P. vivax isolate: Pv796, hepatocyte lot: BGW, assay mode: Radical Cure, 8-day (treatment from day 5 post-infection).
Where [10] appears, read: P. vivax isolate: Pv557, hepatocyte lot: UBV, assay mode: Radical Cure, 8-day (treatment from day 5 post-infection).

As to `Clc1ccc2c(N[C@H]3CCCC[C@@H]3Nc3ccnc4cc(Cl)ccc34)ccnc2c1` [Ro 47-7737], the entries for the “EC50 asexual blood stage growth” value in assay [1], in assay [2] (serum: 0.5% AlbuMAX) and in assay [2] (setting [6]) were 0.002 µM, 0.0042 µM and 0.0036 µM, respectively. The EC50 hypnozoite quantity in assay [3] (setting [7]) is > 10 µM; in assay [3] (setting [8]) it was > 3.33 µM. For the same compound, the “EC50 schizont net growth area” value in assay [3] (setting [7]) and in assay [3] (setting [8]) was > 3.33 µM throughout. Also, the maximum inhibition turned out to be 70.6% in assay [4] (setting [7]) and 99% in assay [4] (setting [8]). Further, the CC20 hepatic nuclei in assay [5] (setting [7]) is > 10 µM; in assay [5] (setting [8]) it was > 3.33 µM.
Take `N#Cc1cc(NC(=O)C2c3ccccc3C(=O)N(CC(F)(F)F)C2c2cccnc2)ccc1F` (stereo unspecified) [SJ733]: the figures for the “EC50 asexual blood stage growth” value in assay [1], in assay [2] (serum: 0.5% AlbuMAX) and in assay [2] (setting [6]) were 0.106 µM, 0.538 µM and 0.293 µM, respectively. Moreover, the EC50 hypnozoite quantity in assay [3] (setting [9]) is > 50 µM. Moreover, the maximum inhibition in assay [4] (setting [9]) turned out to be 56.8%. Also, the CC20 hepatic nuclei in assay [5] (setting [9]) is > 50 µM.
As for `CN(C)[C@@H]1C(O)=C(C(N)=O)C(=O)[C@@]2(O)C(O)=C3C(=O)c4c(O)cccc4[C@@](C)(O)[C@H]3C[C@@H]12` [Tetracycline], the “EC50 asexual blood stage growth” value in assay [1], in assay [2] (serum: 0.5% AlbuMAX) and in assay [2] (setting [6]) was > 10 µM throughout. Besides, the EC50 hypnozoite quantity in assay [3] (setting [8]) is > 10 µM. Moreover, the maximum inhibition in assay [4] (setting [8]) was 56.7%. The CC20 hepatic nuclei in assay [5] (setting [8]) is > 10 µM.
With `C=C(NC(=O)C(=C)NC(=O)c1csc(C2=NC3c4csc(n4)C4NC(=O)c5csc(n5)C(C(C)(O)C(C)O)NC(=O)C5CSC(=N5)C(=CC)NC(=O)C(C(C)O)NC(=O)c5csc(n5)C3(CC2)NC(=O)C(C)NC(=O)C(=C)NC(=O)C(C)NC(=O)C(C(C)CC)NC2C=Cc3c(C(C)O)cc(nc3C2O)C(=O)OC4C)n1)C(N)=O` (stereo unspecified) [Thiostrepton], the “EC50 asexual blood stage growth” value in assay [1] was > 10 µM; in assay [2] (serum: 0.5% AlbuMAX) it was 3.93 µM; in assay [2] (setting [6]), 9.13 µM. Also, the EC50 hypnozoite quantity in assay [3] (setting [7]) is > 10 µM; in assay [3] (setting [8]), 4.04 µM. Moreover, the “EC50 schizont net growth area” value was > 3.33 µM in assay [3] (setting [7]) and 2.39 µM in assay [3] (setting [8]). Further, the values for the maximum inhibition in assay [4] (setting [7]) and in assay [4] (setting [8]) were 80.2% and 99.1%, respectively. The CC20 hepatic nuclei in assay [5] (setting [7]) is > 10 µM; in assay [5] (setting [8]), > 3.33 µM.
With `CCCCCCC[C@H]1CN[C@H](C(=O)NC(C(C)Cl)C2O[C@H](SC)[C@H](O)[C@@H](O)[C@H]2O)C1` (stereo partly drawn) [Trans-Mirincamycin], the “EC50 asexual blood stage growth” value in assay [1], in assay [2] (serum: 0.5% AlbuMAX) and in assay [2] (setting [6]) was > 10 µM in each case. Further, the EC50 hypnozoite quantity in assay [3] (setting [8]) is > 10 µM. For the same compound, in assay [4] (setting [8]), the maximum inhibition turned out to be 72.5%. Moreover, the CC20 hepatic nuclei in assay [5] (setting [8]) was > 10 µM.
As to `Nc1ncc(-c2ccc(C(=O)N3CCNCC3)cc2)nc1-c1ccc(C(F)(F)F)cc1` [UCT943], the “EC50 asexual blood stage growth” value in assay [1] is 0.318 µM; in assay [2] (serum: 0.5% AlbuMAX), 0.0344 µM; in assay [2] (setting [6]), 0.0206 µM. Moreover, the EC50 hypnozoite quantity in assay [3] (setting [10]) was > 10 µM; in assay [3] (setting [8]), 0.00427 µM. The “EC50 schizont net growth area” value amounted to 0.00238 µM in assay [3] (setting [10]) and 0.00175 µM in assay [3] (setting [8]). In addition, the maximum inhibition in assay [4] (setting [10]) was 101%; in assay [4] (setting [8]) it was 100%. In addition, the CC20 hepatic nuclei in assay [5] (setting [10]) and in assay [5] (setting [8]) was > 10 µM each time.
